Test results reported in ChEMBL document CHEMBL3046854, “Lupeol-3-O-decanoate, a new triterpene ester from Cadaba farinosa Forssk. growing in Saudi Arabia” (Med Chem Res, 2013).

test system: Radical scavenging activity; experiment: Antioxidant activity assessed as DPPH free radical scavenging activity at 20 uM after 30 min by UV-vis spectrophotometric analysis relative to propyl gallate; assay type: functional

SMILES	Activity
NCCCCCCCCCCCC(=O)O	87.1%
O=c1c(O[C@@H]2O[C@H](CO)[C@@H](O)[C@H](O)[C@H]2O)c(-c2ccc(O)c(O)c2)oc2cc(O)cc(O)c12	71.8%
COc1ccc(-c2oc3cc(O)cc(O)c3c(=O)c2O[C@@H]2O[C@H](CO)[C@@H](O)[C@H](O)[C@H]2O)cc1OC	49.1%
